In PubChem BioAssay (NCI):
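Compound exposure: 48 hours, 5 concentrations, 96-well plates. Definition used: TGI = concentration required for complete inhibition of growth.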

Tests used:
Test in all cases: NCI anticancer screen, dose series, 48 h
HCT-15 colon = system: HCT-15 colon
SK-OV-3 ovarian = system: SK-OV-3 ovarian
UACC-62 melanoma = system: UACC-62 melanoma
SW-620 colon = system: SW-620 colon
OVCAR-4 ovarian = system: OVCAR-4 ovarian
HCC-2998 colon = system: HCC-2998 colon
IGROV1 ovarian = system: IGROV1 ovarian
SK-MEL-2 melanoma = system: SK-MEL-2 melanoma
OVCAR-8 ovarian = system: OVCAR-8 ovarian
HT29 colon = system: HT29 colon
UO-31 renal = system: UO-31 renal
CAKI-1 renal = system: CAKI-1 renal
MDA-MB-231 breast = system: MDA-MB-231 breast
NCI/ADR-RES ovarian = system: NCI/ADR-RES ovarian
U251 CNS = system: U251 CNS
HOP-92 NSCLC = system: HOP-92 NSCLC
SK-MEL-5 melanoma = system: SK-MEL-5 melanoma
786-0 renal = system: 786-0 renal
A549 NSCLC = system: A549 NSCLC
BT-549 breast = system: BT-549 breast
HL-60(TB) leukemia = system: HL-60(TB) leukemia
PC-3 prostate = system: PC-3 prostate
RPMI-8226 leukemia = system: RPMI-8226 leukemia
EKVX NSCLC = system: EKVX NSCLC
LOX IMVI melanoma = system: LOX IMVI melanoma
TK-10 renal = system: TK-10 renal
T-47D breast = system: T-47D breast
MDA-MB-435 = system: MDA-MB-435
HS 578T breast = system: HS 578T breast
SF-268 CNS = system: SF-268 CNS
OVCAR-3 ovarian = system: OVCAR-3 ovarian
SF-295 CNS = system: SF-295 CNS
SK-MEL-28 melanoma = system: SK-MEL-28 melanoma
SNB-75 CNS = system: SNB-75 CNS
MDA-N = system: MDA-N
DU-145 prostate = system: DU-145 prostate
MOLT-4 leukemia = system: MOLT-4 leukemia
COLO 205 colon = system: COLO 205 colon
ACHN renal = system: ACHN renal
HOP-62 NSCLC = system: HOP-62 NSCLC
SF-539 CNS = system: SF-539 CNS
K-562 leukemia = system: K-562 leukemia
NCI-H23 lung = system: NCI-H23 lung
MCF7 breast = system: MCF7 breast
M14 melanoma = system: M14 melanoma
KM12 colon = system: KM12 colon
UACC-257 melanoma = system: UACC-257 melanoma
MALME-3M melanoma = system: MALME-3M melanoma
NCI-H522 lung = system: NCI-H522 lung
HCT-116 colon = system: HCT-116 colon
CCRF-CEM leukemia = system: CCRF-CEM leukemia
SR leukemia = system: SR leukemia
SN12C renal = system: SN12C renal
NCI-H226 lung = system: NCI-H226 lung
NCI-H460 lung = system: NCI-H460 lung
SNB-19 CNS = system: SNB-19 CNS
RXF 393 renal = system: RXF 393 renal

Measured: TGI

Cc1ccc(-c2nc3ccc([N+](=O)[O-])cc3[nH]2)cc1
> 100 µM: HCT-15 colon | SK-OV-3 ovarian | UACC-62 melanoma | SW-620 colon | OVCAR-4 ovarian | HCC-2998 colon | IGROV1 ovarian | SK-MEL-2 melanoma | OVCAR-8 ovarian | HT29 colon | UO-31 renal | CAKI-1 renal | MDA-MB-231 breast | NCI/ADR-RES ovarian | U251 CNS | HOP-92 NSCLC | SK-MEL-5 melanoma | 786-0 renal | A549 NSCLC | BT-549 breast | HL-60(TB) leukemia | PC-3 prostate | RPMI-8226 leukemia | EKVX NSCLC | LOX IMVI melanoma | TK-10 renal | T-47D breast | MDA-MB-435 | HS 578T breast | SF-268 CNS | OVCAR-3 ovarian | SF-295 CNS | SK-MEL-28 melanoma | SNB-75 CNS | MDA-N | DU-145 prostate | MOLT-4 leukemia | COLO 205 colon | ACHN renal | HOP-62 NSCLC | SF-539 CNS | K-562 leukemia | NCI-H23 lung | MCF7 breast | M14 melanoma | KM12 colon | UACC-257 melanoma | MALME-3M melanoma | NCI-H522 lung | HCT-116 colon | CCRF-CEM leukemia | SR leukemia | SN12C renal | NCI-H226 lung | NCI-H460 lung | SNB-19 CNS | RXF 393 renal
